Reference: patent US6395787B1, “Ocular hypotensive lipids” (Allergan Sales, Inc., priority 2000, dated 2002)

What was measured:
[1] = target: recombinant feline FP receptor (Felis catus, UniProt A0ABI7XJ69); test: Ca2+ signal in HEK-293 cells stably transfected with recombinant feline FP receptor; type: cell-based, cat; settings: for Δ[Ca^2+]i mean χ ± SEM: n = 3
Protocol: Human CRL 1497 cells were plated in culture flasks and fed Dulbecco's modified Eagle's medium (DMEM) containing 10% fetal calf serum, 2 mM 1-glutamine, and 0.05 mg/ml gentacin (all purchased from Gibco, Grand Island, N.Y.). Cell cultures were maintained in a humidified atmosphere of 95% air, 5% CO2 and grown to confluency. Cells were removed from the culture flasks by approximately 1 min treatment with trypsin 0.05%/0.53 mM EDTA in Hanks Balanced Salt Solution (HBSS, Gibco, Grand Island, N.Y.) at 37° C. Proteolytic activity was arrested by adding 5 ml of 10% fetal bovine serum in DMEM. The cells were consecutively washed in Hank's BSS and medium containing 140 mM NaCl, […], 1 mM MgCl2, 1.5 mM CaCl2, 10 mM HEPES: TRIS, 5 mM glucose, 5 mM Na pyruvate, 0.1% bovine serum albumin at pH 7.4: Centrifugation for the washes was performed for 15 minutes at 200 g at room temperature. Cells were counted, resuspended in the above medium and incubated with 2×10^−6 M Fura 2/acetoxymethyl ester in a shaking water bath for 30 minutes at 37° C. The cells were subsequently washed in medium as above and resuspended at a concentration of 2×10^6 cells ml^−1. Aliquots of 0.5 ml cell suspension were then added to autocap microtubes to provide 10^6 cells per experimental determination of intracellular free Ca^2+ concentration ([Ca^2+]i).
Fluorescence was measured in a Perkin-Elmer LS-5 fluorescence spectrophotometer at excitation and emission wavelengths of 340 and 492 nm, respectively, with both slits at 10 nm. For each experimental determination 10^6 cells were washed (200×g for 5 min) and suspended in a 2 ml cuvette with buffer containing 120 mM NaCl, 6 mM KCl, 1 mM MgSO4, 1.5 mM CaCl2, 20 mM HEPES, 1 mg ml^−1 glucose and 1 mg ml^−1 Na pyruvate. Stirring was achieved by an overhead-mounted, paddle stirrer with the temperature maintained at 37° C. The cells were lysed with digitonin (10 μl of 100 mg ml^−1 DMSO) to obtain fmax. EGTA (100 mM) and sufficient 10N NaOH to adjust the pH to 8.5 were then successively added to obtain fmin.
(§1) HEK-293 cells were grown in DMEM with 10% fetal bovine serum (FBS), 250 μg ml^−1 G418 (Life Technologies) and 200 μg ml^−1 gentamicin or penicillin/streptomycin. […] For transfection, the cells were grown to 50-60% confluency on 10 cm plates. The plasmid pCEP4 incorporating cDNA inserts for the human FP receptor (20 μg) was added to 500 μl of 250 mM CaCl2. HEPES buffered saline×2 (2×HBSS, 280 mM NaCl, 20 mM HEPES acid, 1.5 mM Na2 HPO4, pH 7.05-7.12) was then added dropwise to a […], with continuous vortexing at room temperature. After 30 min, 9 ml DMEM were added to the mixture. The DNA/DMEM/calcium phosphate mixture was then added to the cells, which had been previously rinsed with 10 ml phosphate buffered saline (PBS). The cells were then incubated for 5 h. at 37° C. in humidified 95% air/5% CO2. The calcium phosphate solution was then removed and the cells were treated with 10% glycerol in DMEM for 2 min. The glycerol solution was then replaced by DMEM with 10% fetal bovine serum (FBS). The cells were incubated overnight and the medium was replaced by DMEM/10% FBS containing 250 μg ml^−1 G418 and penicillin/streptomycin. The following day hygromycin B was added to a final concentration of 200 μg ml^−1.
Ten days after transfection, hygromycin B resistant clones were individually selected and transferred to a separate well on a 24 well plate. […]

human FP receptor = human FP receptor (Homo sapiens, UniProt P43088); test: Total inositol phosphate accumulation, HEK-293 cells with recombinant human FP receptor; type: cell-based; set-up: expressed in transfected cells; settings: for % maximal total inositol phosphate accumulation mean χ ± SEM: reference 17-phenyl PGF2α 10^−6 M
Protocol: as §1
Receptor-mediated phosphoinositide (PI) hydrolysis was determined by measuring the accumulation of total inositol phosphates (IP) in cells preincubated with ^3H-myoinositol. Stable cell lines of HEK 293 cells expressing human or cat FP receptors were plated in 10 cm dishes (10^6 cells per dish in DMEM with 10% FBS). The following day, the cells were incubated with 18 μCi myo-[2 ^3H] inositol (Amersham; […]) in 6 ml of DMEM with 10% FBS for 24 hours at 37° C. The cells were then rinsed twice with phosphate buffered saline (PBS), incubated for 5 min with 1 ml of trypsin-EDTA, and suspended in 10 ml DMEM containing 25 mM HEPES buffer. Cells were pelleted at 1000 rpm and resuspended in DMEM/25 mM HEPES containing 10 mM LiCl for 10 minutes. Aliquots of 200 μl cell suspension were incubated with 50 μl drug for 30 minutes at 37° C. (duplicate determination), and agonist stimulation was terminated with a 750 μl mixture of chloroform:methanol:4N HCl (100:200:2), followed by addition of 250 μl of chloroform and 0.5 N HCl for extraction of inositol phosphates. A 750 μl volume of the aqueous layer was loaded on columns packed with 0.5 ml of Dowex AG 1-X8 anion-exchange resin (formate form, 100-200 mesh; BioRad) to separate radiolabeled components. The elution procedure consisted of three 3 ml washes with 5 mM inositol, then two elutions with 750 μl of 1.3 M ammonium formate with 0.1 M formic acid. The eluate was mixed with 10 ml Aquasol scintillation fluid (Packard Instrument Co.) and total [^3H] inositol phosphates was determined by a liquid scintillation counter.

Sequence of recombinant feline FP receptor (A0ABI7XJ69 entry or part of it): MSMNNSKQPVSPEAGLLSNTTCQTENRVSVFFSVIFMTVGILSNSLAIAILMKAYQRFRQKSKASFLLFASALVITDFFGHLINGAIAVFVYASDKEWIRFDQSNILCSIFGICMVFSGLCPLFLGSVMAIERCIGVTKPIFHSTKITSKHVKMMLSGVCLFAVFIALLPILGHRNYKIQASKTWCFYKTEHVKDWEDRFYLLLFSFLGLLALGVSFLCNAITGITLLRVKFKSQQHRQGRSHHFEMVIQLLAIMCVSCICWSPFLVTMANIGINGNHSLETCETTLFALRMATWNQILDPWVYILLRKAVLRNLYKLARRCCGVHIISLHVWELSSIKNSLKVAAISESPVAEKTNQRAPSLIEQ
Sequence of human FP receptor (P43088 whole entry): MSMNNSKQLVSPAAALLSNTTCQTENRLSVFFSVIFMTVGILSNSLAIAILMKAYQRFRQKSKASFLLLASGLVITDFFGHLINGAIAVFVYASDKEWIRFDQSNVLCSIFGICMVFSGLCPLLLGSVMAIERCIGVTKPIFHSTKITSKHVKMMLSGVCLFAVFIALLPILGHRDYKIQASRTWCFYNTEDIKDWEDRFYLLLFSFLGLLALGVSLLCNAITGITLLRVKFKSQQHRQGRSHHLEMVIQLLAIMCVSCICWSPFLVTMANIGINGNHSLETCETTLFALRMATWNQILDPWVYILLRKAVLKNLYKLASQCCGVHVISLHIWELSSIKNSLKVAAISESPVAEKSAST

- Δ[Ca^2+]i mean χ ± SEM ([1]; 10^−9 M): 22.2 ± 6.4
- Δ[Ca^2+]i mean χ ± SEM ([1]; 10^−10 M): 6.5 ± 5.0
- difference in potency vs PGF2α ([1]; HEK-293 cells, recombinant feline FP receptor, Ca2+ signal): approximately 100 fold
- EC50 ([1]; HEK-293 cells, recombinant feline FP receptor, read-out: E.C.50, Ca2+ signal): 1460 nM
- % maximal total inositol phosphate accumulation mean χ ± SEM (human FP receptor; 10^−5 M): 85.0 ± 1.9%
- % maximal total inositol phosphate accumulation mean χ ± SEM (human FP receptor; 10^−6 M): 48.4 ± 3.3%
- % maximal total inositol phosphate accumulation mean χ ± SEM (human FP receptor; 10^−7 M): 10.0 ± 1.6%
- % maximal total inositol phosphate accumulation mean χ ± SEM (human FP receptor; 10^−8 M): 0.3 ± 0.6%
- EC50 (human FP receptor; HEK-293 cells, recombinant human FP receptor, read-out: E.C.50, total inositol phosphate accumulation): 1000 nM
SMILES: CCCCC[C@H](O)/C=C/[C@@H]1[C@@H](C/C=C\CCCC(=O)NCCO)[C@@H](O)C[C@H]1O [PGF2α 1-ethanolamide, (5Z,8α,9α,11α,13E,15S)-9,11,15-trihydroxy-N-(2-hydroxyethyL)prosta-5,13-dien-1-amide]
